Measurements from PubChem BioAssay (NCI).
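Test compounds were applied to cells in 96-well plates for 48 hours at 5 doses. At the GI50, growth is halved. TGI denotes the concentration required for complete inhibition of growth.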

Tests used:
Test in all cases: DTP human tumour cell line panel, 48 h; in the data active = GI50 below about 0.43 µM; inactive = the rest
[1] = system: 786-0 renal
[2] = system: A498 renal
[3] = system: A549 NSCLC
[4] = system: BT-549 breast
[5] = system: CAKI-1 renal
[6] = system: CCRF-CEM leukemia
[7] = system: COLO 205 colon
[8] = system: DU-145 prostate
[9] = system: EKVX NSCLC
[10] = system: HCC-2998 colon
[11] = system: HCT-116 colon
[12] = system: HCT-15 colon
[13] = system: HL-60(TB) leukemia
[14] = system: HOP-62 NSCLC
[15] = system: HOP-92 NSCLC
[16] = system: HS 578T breast
[17] = system: HT29 colon
[18] = system: IGROV1 ovarian
[19] = system: K-562 leukemia
[20] = system: KM12 colon
[21] = system: LOX IMVI melanoma
[22] = system: M14 melanoma
[23] = system: MALME-3M melanoma
[24] = system: MCF7 breast
[25] = system: MDA-MB-231 breast
[26] = system: MOLT-4 leukemia
[27] = system: NCI-H226 lung
[28] = system: NCI-H23 lung
[29] = system: NCI-H460 lung
[30] = system: NCI-H522 lung
[31] = system: NCI/ADR-RES ovarian
[32] = system: OVCAR-3 ovarian
[33] = system: OVCAR-4 ovarian
[34] = system: OVCAR-5 ovarian
[35] = system: OVCAR-8 ovarian
[36] = system: PC-3 prostate
[37] = system: RPMI-8226 leukemia
[38] = system: RXF 393 renal
[39] = system: SF-268 CNS
[40] = system: SF-295 CNS
[41] = system: SF-539 CNS
[42] = system: SK-MEL-2 melanoma
[43] = system: SK-MEL-28 melanoma
[44] = system: SK-MEL-5 melanoma
[45] = system: SK-OV-3 ovarian
[46] = system: SN12C renal
[47] = system: SNB-19 CNS
[48] = system: SR leukemia
[49] = system: SW-620 colon
[50] = system: T-47D breast
[51] = system: TK-10 renal
[52] = system: U251 CNS
[53] = system: UACC-257 melanoma
[54] = system: UACC-62 melanoma
[55] = system: UO-31 renal

O=C(O)CCCn1c(SCc2c(Cl)cccc2Cl)nc2ccsc2c1=O
> 100000 nM: TGI [2] | TGI [3] | TGI [4] | TGI [5] | TGI [6] | TGI [8] | TGI [9] | TGI [11] | TGI [12] | TGI [14] | TGI [15] | TGI [16] | TGI [17] | TGI [18] | TGI [19] | TGI [20] | TGI [21] | TGI [22] | TGI [23] | TGI [24] | TGI [26] | TGI [27] | TGI [28] | TGI [29] | TGI [31] | TGI [33] | TGI [34] | TGI [35] | TGI [36] | TGI [37] | TGI [39] | TGI [40] | TGI [42] | TGI [43] | TGI [45] | TGI [46] | TGI [47] | TGI [48] | TGI [49] | TGI [50] | TGI [51] | TGI [52] | TGI [53] | TGI [55]
1620 nM: TGI [32]
57300 nM: TGI [44]
12000 nM: TGI [13]
inactive: GI50 [3] 715 nM | GI50 [4] 459 nM | GI50 [5] 452 nM | GI50 [8] 479 nM | GI50 [9] 4520 nM | GI50 [10] 1850 nM | GI50 [11] 432 nM | GI50 [14] 819 nM | GI50 [16] 434 nM | GI50 [17] 448 nM | GI50 [18] 1350 nM | GI50 [21] 509 nM | GI50 [25] 774 nM | GI50 [26] 440 nM | GI50 [27] 685 nM | GI50 [28] 587 nM | GI50 [33] 7990 nM | GI50 [34] 5740 nM | GI50 [35] 828 nM | GI50 [37] 489 nM | GI50 [39] 830 nM | GI50 [43] 698 nM | GI50 [45] 710 nM | GI50 [46] 661 nM | GI50 [47] 517 nM | GI50 [50] 482 nM | GI50 [51] 26200 nM | GI50 [52] 529 nM | GI50 [53] 58700 nM | GI50 [55] 478 nM
10800 nM: TGI [7]
active: GI50 [1] 399 nM | GI50 [2] 311 nM | GI50 [6] 377 nM | GI50 [7] 384 nM | GI50 [12] 321 nM | GI50 [13] 284 nM | GI50 [15] 236 nM | GI50 [19] 272 nM | GI50 [20] 321 nM | GI50 [22] 366 nM | GI50 [23] 336 nM | GI50 [24] 263 nM | GI50 [29] 419 nM | GI50 [30] 205 nM | GI50 [31] 276 nM | GI50 [32] 206 nM | GI50 [36] 354 nM | GI50 [38] 306 nM | GI50 [40] 376 nM | GI50 [41] 260 nM | GI50 [42] 386 nM | GI50 [44] 283 nM | GI50 [48] 316 nM | GI50 [49] 407 nM | GI50 [54] 185 nM
32900 nM: TGI [1]
50900 nM: TGI [25]
34200 nM: TGI [54]
23200 nM: TGI [10]
943 nM: TGI [41]
32200 nM: TGI [30]
2780 nM: TGI [38]
